Where two headings read alike, the source gives them in different places.
How the values were obtained:
TNFα [1] = biological target: T1, TNFα (Homo sapiens, UniProt P01375+P14207); test: Compound mediated uptake of TNFα-pHrodo in THP-1 cells (flow cytometry); format: cell-based; conditions: 125 nM-20 μM, 24 hrs, FIG. 4
T1 construct: made in house
Experimental: THP-1 cells, a monocytic leukemia cell line that endogenously express folate receptor beta, were used as a model system to measure example compound stimulated uptake of in-house produced TNFα conjugated to the pH sensitive fluorescent dye pHrodo green (ThermoFisher Scientific #P35369).
THP-1 cells were maintained in RPMI (Gibco #61870143) with 10% v/v FBS (VWR #89510-188) with 2 mM L-alanyl-L-glutamine dipeptide, 100 units/ml penicillin and 100 ug/ml streptomycin (Gibco #15140148). Cells were pelleted, resuspended in folate-free RPMI (Gibco #27016021) and seeded at 50,000 cells per well of a 96 well plate. Example compound was added to each well as a log 2 dilution series ranging from 20 μM to 125 nM final concentration. Cells were incubated for 24 hrs and washed/resuspended in phosphate buffered saline (pH 7.4) with 1% w/v BSA. Uptake was measured using a Novocyte Advanteon Flow Cytometer (Agilent Technologies) with the […] and FITC detection configuration.

TNFα [2] = biological target: T1, TNFα; test: Compound mediated depletion of HiBiT-TNFα from the medium of THP-1 cells; format: cell-based; conditions: compound 10 μM, FIG. 6
Excerpt: An in-house recombinantly expressed and purified N-terminal fusion of HiBiT with TNFα was used to measure example compound-stimulated depletion from the media. HiBiT and largeBiT are split nanoluciferase polypeptides that result in complementation of luciferase activity in the presence of both polypeptides. The level of HiBit-TNFα in the media over time can be measure by sampling the media and mixing with the Nano-Glo HiBiT Extracellular Detection Reagent (Promega Corporation) containing the largeBiT polypeptide and nanoluciferase substrate.
THP-1 cells were seeded at 100,000 cells per well of 12 well plate with 1 mL RPMI+10% w/w FBS+1× penicillin/streptomycin and differentiated using 20 ng/mL phorbol myristate acetate (Sigma-Aldrich #P8139) for 72 hrs. After 72 hrs the growth medium was replaced with 1 ml RPMI+10% v/v FBS+1× penicillin/streptomycin containing 12.5 nM HiBit-TNFα. Where noted example compound was added at 10 μM final concentration. The medium was sampled (50 μl) at 0, 24, 48 and 96 hr and luciferase activity was measured using the Nano-Glo HiBiT Extracellular Detection Reagent.

TNFα [3] = biological target: T1, TNFα; test: Compound mediated degradation of TNFα in THP-1 cells (pulse-chase, TNFα-biotin blot); format: cell-based; conditions: PMA differentiated THP-1 cells, compound 10 μM, FIG. 5
Experimental: To measure degradation of internalized TNFα, a pulse-chase experiment was performed whereby cells were treated with +/− example compounds and/or +/− protease inhibitors and incubated for 1 hr in media containing TNFα-biotin to allow uptake and then washed and incubated 90 minutes in fresh media without TNFα to allow degradation. Samples were collected after the pulse phase (60 min) and chase phase (90 min) to measure uptake and degradation, respectively.
THP-1 cells were seeded at 100,000 cells per well of 12 well plate with 1 mL RPMI+10% w/w FBS+1× penicillin/streptomycin and differentiated using 20 ng/mL phorbol myristate acetate (Sigma-Aldrich #P8139) for 72 hrs. After 72 hrs media was replaced with 1 ml RPMI+10% v/v FBS+1× penicillin/streptomycin and TNFα-biotin (AcroBiosystems #50-201-9879) was added to 12.5 nM final concentration. Where noted example compound was added at 10 μM final concentration and protease inhibitors were added at 100 ug/ml final concentration for leupeptin (Sigma-Aldrich #L2884) or 1 μg/ml final concentration for pepstatin A (Sigma-Aldrich #BP26715). […] Relative quantification of bands was performed using the ImageLab software (BioRad) with endogenously biotinylated proteins serving as endogenous controls. […]

TNFα trimer = biological target: T2, TNFα trimer (Homo sapiens, UniProt P01375); test: SPR binding kinetics of compounds to TNFα trimer (single-cycle kinetics); conditions: for kon: read-out: ka
T2 construct: Ligand MW (Da) 53729.8; fused on or other part: Three copies of soluble TNF-alpha joined by linkers into one polypeptide; The protein is biotinylated and captured on immobilised streptavidin
T2 sequence (P01375 88-233 limits assumed): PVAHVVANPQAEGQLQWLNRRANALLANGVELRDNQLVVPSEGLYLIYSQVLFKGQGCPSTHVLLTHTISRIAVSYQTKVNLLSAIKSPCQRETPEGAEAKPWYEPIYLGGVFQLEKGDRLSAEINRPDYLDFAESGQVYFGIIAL
Experimental: Streptavidin 100 μg/mL Streptavidin (Invitrogen Cat #:434302) diluted in 10 mM sodium acetate, pH 4.5) was immobilized to both the reference and active surfaces as described in Example 51. The surfaces were conditioned with three injections of running Buffer (10 mM HEPES, 150 mM NaCl, 0.05% T20, pH 7.5, 2% DMSO) at a flow rate of 10 μL/min, Contact time: 60 s. Flow rate: 10 μL/min. The active surface was treated with biotinylated linked TNFα timer 20 μg/mL diluted in running buffer at a flow rate of 5 μL/min contact time: 600 s, yielding a final response of ˜3000 RU. Example compounds were then serially diluted 1:1 in running buffer (10 mM HEPES, 150 mM NaCl, 0.05% T20, pH 7.5, 2% DMSO) from 30 uM to 937.5 nM and flowed over the active and reference surfaces from lowest concentration to greatest concentration in the single-cycle kinetics format, and then allowed to dissociate in running buffer for 7200 s, at 30 μL/min. Sensorgrams were solvent corrected, double-referenced, and the data fitted and analyzed in Biacore Insight Evaluation Software Version 3.0.11.15423.

FOLR2 = biological target: T3, FOLR2 (Homo sapiens, UniProt P14207); test: SPR binding kinetics of compounds to folate receptor (FOLR2); conditions: immobilized FOLR2, compound 3.125-100 nM
T3 construct: purchased Acro Biosystems FO2-H5223-100 μg
T3 sequence (P14207 17-230): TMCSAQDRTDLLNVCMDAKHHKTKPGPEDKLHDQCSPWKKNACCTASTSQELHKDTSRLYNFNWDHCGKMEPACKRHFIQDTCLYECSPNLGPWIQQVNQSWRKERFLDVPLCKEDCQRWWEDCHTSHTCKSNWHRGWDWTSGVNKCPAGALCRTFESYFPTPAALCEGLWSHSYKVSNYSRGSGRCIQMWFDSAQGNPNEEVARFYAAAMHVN
Experimental: A Biacore 8K+ was used to measure the association and dissociation rates of example compounds to FOLR2 (Acro Biosystems, Cat: FO2-H5223-100 μg). Briefly, FOLR2 was reconstituted according to the manufacture's instructions to 200 μg/mL. Both the active and reference surfaces of a Cytiva CM5 Series S Sensor Chip were activated with a 1:1 mixture of 400 mM EDC and 100 mM NHS for 420 s at 10 μL/min. 25 μg/mL FOLR2 diluted in Sodium Acetate pH 5.5 was injected on the active channel (Flow Cell 2) for 420 s at 10p/min. Both the reference and active surfaces were then capped with 1M ethanolamine, pH 8.5 for 420 s, achieving an immobilization level of ˜4200 RU. Example compounds were serially diluted 1:1 in running buffer (10 mM HEPES, 150 mM NaCl, 0.05% T20, pH 7.5, 2% DMSO) from 100 nM to 3.125 nM and flowed over the active and reference surfaces for 120 s, and then allowed to dissociate in running buffer for 600 s, at 30 uL/min. The FOLR2 immobilized active surface and the reference surface were regenerated with a 30 s pulse of Sodium Acetate pH 5.5 at 30 μL/min. Sensorgrams were solvent corrected, double-referenced, and the data fitted and analyzed in Biacore Insight Evaluation Software Version 3.0.11.15423.
FIG. 1 illustrates the SPR sensorgrams for various concentrations of compound I-21 (3.125 nM to 100 nM) to folate receptor 2 (FOLR2), illustrating 1:1 binding.

[4] = SPR single cycle kinetics, immobilized TNFα trimer
[5] = SPR single cycle kinetics, immobilized TNFα trimer, compound 937.5 nM-30 uM

T1 sequence (P01375 77-233 limits assumed, species assumed): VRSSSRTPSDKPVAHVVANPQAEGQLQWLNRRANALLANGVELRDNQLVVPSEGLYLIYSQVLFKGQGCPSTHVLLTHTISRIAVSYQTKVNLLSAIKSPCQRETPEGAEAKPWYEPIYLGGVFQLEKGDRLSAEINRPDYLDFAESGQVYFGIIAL
T1 sequence (P14207 17-230 limits assumed, species assumed): as the sequence (P14207 17-230) above

SMILES: Cc1nc2cc(F)c(-c3cnc(OCCCCCn4cc(COCCOCCOCCOCCNC(=O)CC[C@H](NC(=O)c5ccc(NCc6cnc7nc(N)nc(O)c7n6)cc5)C(=O)O)nn4)nc3)nc2c(N[C@H](C)c2cc(C#N)ccc2F)c1Cl [Compound I-17, (S)-18-(4-(((2-amino-4-hydroxypteridin-6-yl)methyl)amino)benzamido)-1-(1-(5-((5-(7-chloro-8-(((R)-1-(5-cyano-2-fluorophenyl)ethyl)amino)-3-fluoro-6-methyl-1,5-naphthyridin-2-yl)pyrimidin-2-yl)oxy)pentyl)-1H-1,2,3-triazol-4-yl)-15-oxo-2,5,8,11-tetraoxa-14-azanonadecan-19-oic acid]
- uptake of labelled TNFα (median fluorescence intensity of pHrodo dye) (TNFα [1]): stimulated uptake of labelled TNFα in THP-1 cells in a dose-dependent manner
- rate of depletion of HiBiT-TNFα from medium (TNFα [2]; first 24 hours): more rapid depletion of HiBiT-TNFα over the first 24 hours
- total depletion of HiBiT-TNFα from the culture medium (TNFα [2]; sampled to 96 hr): greater total depletion of HiBiT-TNFα from the culture medium
- degradation and rescue of TNFα (TNFα [3]): mediated degradation and rescue of TNFα

SMILES: Cc1nc2cc(F)c(-c3cnc(OCCCCCn4cc(COCCOCCOCCOCCNC(=O)[C@H](CCC(=O)O)NC(=O)c5ccc(NCc6cnc7nc(N)nc(O)c7n6)cc5)nn4)nc3)nc2c(N[C@H](C)c2cc(C#N)ccc2F)c1Cl [Compound I-21, (S)-16-(4-(((2-amino-4-hydroxypteridin-6-yl)methyl)amino)benzamido)-1-(1-(5-((5-(7-chloro-8-(((R)-1-(5-cyano-2-fluorophenyl)ethyl)amino)-3-fluoro-6-methyl-1,5-naphthyridin-2-yl)pyrimidin-2-yl)oxy)pentyl)-1H-1,2,3-triazol-4-yl)-15-oxo-2,5,8,11-tetraoxa-14-azanonadecan-19-oic acid]
- Kd (TNFα trimer; [4]): 80.5 nM
- kon (TNFα trimer; [5]): 963 M⁻¹ s⁻¹
- Kd (FOLR2): 0.833 nM
- kon (FOLR2; read-out: ka): 5.57e+06 M⁻¹ s⁻¹

SMILES: Nc1nc(O)c2nc(CNc3ccc(C(=O)N[C@@H](CCC(=O)NCCOCCOCCOCCOCc4cn(CCCCCOc5ccc(-c6ccc7nc(COc8cccc(N9CCCC9=O)c8)n(Cc8ccccc8OC(F)F)c7c6)cn5)nn4)C(=O)O)cc3)cnc2n1 [Compound I-25, (S)-18-(4-(((2-amino-4-hydroxypteridin-6-yl)methyl)amino)benzamido)-1-(1-(5-((5-(1-(2-(difluoromethoxy)benzyl)-2-((3-(2-oxopyrrolidin-1-yl)phenoxy)methyl)-1H-benzo[d]imidazol-6-yl)pyridin-2-yl)oxy)pentyl)-1H-1,2,3-triazol-4-yl)-15-oxo-2,5,8,11-tetraoxa-14-azanonadecan-19-oic acid]
- Kd (TNFα trimer; [4]): 4.18 nM
- kon (TNFα trimer; [5]): 874 M⁻¹ s⁻¹

SMILES: Cc1nc2cc(F)c(-c3cnc(OCCCCCn4cc(COCCOCCNC(=O)CC[C@H](NC(=O)c5ccc(NCc6cnc7nc(N)nc(O)c7n6)cc5)C(=O)O)nn4)nc3)nc2c(N[C@H](C)c2cc(C#N)ccc2F)c1Cl [Compound I-16, N2-(4-(((2-amino-4-hydroxypteridin-6-yl)methyl)amino)benzoyl)-N5-(2-(2-((1-(5-((5-(7-chloro-8-(((R)-1-(5-cyano-2-fluorophenyl)ethyl)amino)-3-fluoro-6-methyl-1,5-naphthyridin-2-yl)pyrimidin-2-yl)oxy)pentyl)-1H-1,2,3-triazol-4-yl)methoxy)ethoxy)ethyl)-L-glutamine]
- binding mode from SPR sensorgrams (TNFα trimer; FIGS. 2A-2C): 1:1 binding
- Kd (TNFα trimer; [4]): 50.2 nM
- Rmax (TNFα trimer; [4]): 43.7 RU
- kd (TNFα trimer; [4]): 5.81e-05 s⁻¹
- Stoichiometry (TNFα trimer; SPR, Rmax versus expected Rmax): 0.7
- kon (TNFα trimer): 1160 M⁻¹ s⁻¹
